Results: DBAASP
Values after ≈ are worked out from the molar mass of the structure shown. Each block holds one compound with its values, some of them ahead of it.

How the values were obtained:
Assay in all cases: ≥ marks a high value that may be exact or a test limit, other limits are often not marked, values filed in µg/mL are converted to µM
[1] = system: Bacillus amyloliquefaciens ATCC 23842
[2] = system: Bacillus cereus ATCC 14579
[3] = system: Bacillus licheniformis ATCC 14580
[4] = system: Bacillus subtilis ATCC 6051
[5] = system: Enterococcus faecalis 1F-1
[6] = system: Enterococcus faecium 5F-10
[7] = system: Escherichia coli ATCC 25922
[8] = system: Proteus mirabilis ATCC 35659
[9] = system: Pseudomonas aeruginosa PAO1
[10] = system: Salmonella enterica ATCC H9812
[11] = system: Staphylococcus aureus ATCC 29213
[12] = system: Bacillus subtilis
[13] = system: Enterococcus faecalis
[14] = system: Escherichia coli O111:B4
[15] = system: Pseudomonas aeruginosa H103
[16] = system: Salmonella typhimurium C610
[17] = system: Staphylococcus aureus K147
[18] = system: Staphylococcus aureus SAP 0017
[19] = system: Staphylococcus epidermidis
[20] = system: Escherichia coli CVCC 1515
[21] = system: Escherichia coli K88
[22] = system: Escherichia coli UB1005
[23] = system: Pseudomonas aeruginosa ATCC 27853
[24] = system: Salmonella enterica subsp. enterica serovar Typhimurium ATCC 14028
[25] = system: Staphylococcus epidermidis ATCC 12228
[26] = system: Escherichia coli K-12
[27] = system: Pseudomonas aeruginosa PA214
[28] = system: Enterobacter cloacae
[29] = system: Escherichia coli ATCC 35218
[30] = system: Escherichia coli UTI89
[31] = system: Klebsiella pneumoniae ATCC 700603
[32] = system: Klebsiella pneumoniae NDM-1
[33] = system: Klebsiella pneumoniae
[34] = system: Vibrio cholerae

MIC [1]: ≥ 154 µM | MIC [2]: ≥ 154 µM | MIC [3]: ≥ 154 µM | MIC [4]: ≥ 154 µM | MIC [5]: ≥ 154 µM | MIC [6]: ≥ 154 µM | MIC [7]: > 154 µM | MIC [8]: ≥ 154 µM | MIC [9]: > 154 µM | MIC [10]: ≥ 154 µM | MIC [11]: > 154 µM
SMILES: CC(C)C[C@H](NC(=O)[C@@H](N)CC(C)C)C(=O)N[C@@H](CO)C(=O)N[C@@H](CCCN=C(N)N)C(=O)N[C@H](C(=O)N[C@@H](CC(=O)O)C(=O)N[C@@H](CCC(=O)O)C(=O)O)C(C)C [LLSRVDE]

MIC [12]: ≥ 68.9 µM | MIC [13]: ≥ 68.9 µM | MIC [14]: ≥ 68.9 µM | MIC [15]: ≥ 68.9 µM | MIC [16]: ≥ 68.9 µM | MIC [17]: ≥ 68.9 µM | MIC [18]: ≥ 68.9 µM | MIC [19]: ≥ 68.9 µM
SMILES: CC(C)C[C@H](NC(=O)[C@H](CCCCN)NC(=O)[C@H](CCCCN)NC(=O)[C@H](Cc1ccccc1)NC(=O)[C@H](Cc1ccccc1)NC(=O)[C@H](CO)NC(=O)[C@H](CCCCN)NC(=O)[C@@H](N)CCCCN)C(=O)N[C@H](C(=O)N[C@@H](CO)C(=O)N[C@H](C(=O)N[C@@H](C)C(=O)N[C@@H](CO)C(=O)N[C@@H](CO)C(=O)N[C@H](C(=O)N[C@@H](CC(C)C)C(=O)N[C@@H](CO)C(=O)O)C(C)C)C(C)C)[C@@H](C)O [KKSFFKKLTSVASSVLS]

MIC [7]: 1 µM (≈ 1.35 µg/mL) | MIC [20]: 8 µM (≈ 10.8 µg/mL) | MIC [21]: 4 µM (≈ 5.41 µg/mL) | MIC [22]: 8 µM (≈ 10.8 µg/mL) | MIC [23]: 4 µM (≈ 5.41 µg/mL) | MIC [24]: 32 µM (≈ 43.3 µg/mL) | MIC [11]: 4 µM (≈ 5.41 µg/mL) | MIC [25]: 4 µM (≈ 5.41 µg/mL)
SMILES: CC(C)C[C@H](NC(=O)[C@H](CC(C)C)NC(=O)[C@H](CCCCN)NC(=O)[C@H](C)NC(=O)[C@H](C)NC(=O)[C@H](C)NC(=O)[C@H](CCCCN)NC(=O)[C@H](C)NC(=O)[C@H](C)NC(=O)[C@H](C)NC(=O)[C@H](CCCCN)NC(=O)[C@H](Cc1c[nH]c2ccccc12)NC(=O)[C@@H](N)CC(C)C)C(N)=O [LWKAAAKAAAKLL]

MIC [26]: 12.5 µM (≈ 22.9 µg/mL) | MIC [27]: ≥ 50 µM | MIC [9]: 50 µM (≈ 91.8 µg/mL)
SMILES: C[C@H](NC(=O)[C@H](C)NC(=O)[C@H](CCCCN)NC(=O)[C@H](Cc1ccccc1)NC(=O)[C@H](C)NC(=O)[C@H](CCCCN)NC(=O)[C@H](C)NC(=O)[C@H](Cc1c[nH]c2ccccc12)NC(=O)[C@H](C)NC(=O)[C@H](CCCCN)NC(=O)[C@H](C)NC(=O)[C@H](Cc1ccccc1)NC(=O)[C@H](CCCCN)NC(=O)[C@H](CCCCN)NC(=O)[C@H](C)NC(=O)[C@H](C)NC(=O)[C@@H](N)CCCCN)C(N)=O [KAAKKFAKAWAKAFKAA]

MIC [28]: 4 µM (≈ 13 µg/mL) | MIC [7]: 4 µM (≈ 13 µg/mL) | MIC [29]: 4 µM (≈ 13 µg/mL) | MIC [30]: 4 µM (≈ 13 µg/mL) | MIC [31]: 4 µM (≈ 13 µg/mL) | MIC [32]: 4 µM (≈ 13 µg/mL) | MIC [33]: 5.66 µM (≈ 18.4 µg/mL) | MIC [23]: 4 µM (≈ 13 µg/mL) | MIC [9]: 4 µM (≈ 13 µg/mL)
SMILES: CC[C@H](C)[C@H](NC(=O)[C@@H](NC(=O)[C@@H]1CCCN1C(=O)[C@H](CO)NC(=O)[C@H](CC(C)C)NC(=O)[C@H](CCCCN)NC(=O)[C@H](CCCCN)NC(=O)[C@H](Cc1ccccc1)NC(=O)[C@H](CC(C)C)NC(=O)[C@H](CCCCN)NC(=O)[C@H](CCCCN)NC(=O)[C@H](CC(C)C)NC(=O)[C@H](CCCCN)NC(=O)[C@H](CCCCN)NC(=O)[C@H](CCCN=C(N)N)NC(=O)[C@H](Cc1ccccc1)NC(=O)[C@H](CCCN=C(N)N)NC(=O)[C@H](CCCCN)NC(=O)[C@H](Cc1ccccc1)NC(=O)[C@H](CCCN=C(N)N)NC(=O)CN)C(C)C)C(=O)N1CCC[C@H]1C(=O)N[C@@H](CC(C)C)C(=O)N[C@@H](CC(C)C)C(=O)N[C@@H](Cc1cnc[nH]1)C(=O)N[C@@H](CC(C)C)C(=O)NCC(=O)O [GRFKRFRKKLKKLFKKLSPVIPLLHLG]
MIC [34]: 2.83 µM (≈ 9.19 µg/mL)
